Results from patent US20230242585A1, “IMMUNOMODULATORS” (Bristol-Myers Squibb Company, priority 2020, published 2023).
pIC50: −log10 of the molar value. Starred links: 1 amine or outer side, 2 acyl side, 3 side chain; linkers in the order of their positions; H or OH if unused. Positions of bridges follow the written chain, without caps; N, C: chain ends. Non-standard residues stand in square brackets, D forms with d. Residues, ends and D or L forms follow the SMILES beside them. X28 = O=C([C@H](CCNC[C@H](O)[C@@H](O)[C@H](O[C@@H]1O[C@H](CO)[C@H](O)[C@H](O)[C@H]1O)[C@H](O)CO)N[*:1])[*:2]; X27 = O=C([C@H](CNC[C@H](O)[C@@H](O)[C@H](O[C@@H]1O[C@H](CO)[C@H](O)[C@H](O)[C@H]1O)[C@H](O)CO)N[*:1])[*:2]; X56 = O=C([C@H](CCNC[C@@H](O)[C@H](O)[C@@H](O)[C@@H](O)[C@H](O)CO)N[*:1])[*:2]; X49 = O=C([C@H](CNC[C@@H](O)[C@H](O)[C@@H](O)[C@@H](O)[C@H](O)CO)N[*:1])[*:2]; X41 = O=C([C@H](CCNC1[C@@H](O)[C@@H](O)[C@@H](O)[C@H](O)[C@H]1O)N[*:1])[*:2]; X40 = O=C([C@H](CNC1[C@@H](O)[C@@H](O)[C@@H](O)[C@H](O)[C@H]1O)N[*:1])[*:2]; X50 = O=C([C@H](CNC[C@@H](O)[C@@H](O)[C@H](O)[C@H](O)C(O)CO)N[*:1])[*:2]; X35 = O=C([C@H](CNC[C@H](O)[C@H](O)[C@@H](O)[C@@H](O)CO)N[*:1])[*:2]; X59 = O=C([C@H](CCNC[C@H](O)[C@@H](O)[C@H](O)[C@H](O)CO)N[*:1])[*:2]; X58 = O=C([C@H](CNC[C@H](O)[C@@H](O)[C@H](O)[C@H](O)CO)N[*:1])[*:2]; Trp(1-CH2COOH) = N[C@@H](Cc1cn(CC(=O)O)c2ccccc12)C(=O)O; Hyp = O=C(O)[C@@H]1C[C@@H](O)CN1; NMeNle = CCCC[C@H](NC)C(=O)O; NMeA = CN[C@@H](C)C(=O)O; Dab = NCC[C@H](N)C(=O)O

Molecular target: T1, PD-1/PD-L1 (Homo sapiens, UniProt Q9NZQ7)
T1 construct: TVMV protease site (linker) (C); made in house; host or cells: HEK293T cells
T1 sequence (Q9NZQ7 18-239): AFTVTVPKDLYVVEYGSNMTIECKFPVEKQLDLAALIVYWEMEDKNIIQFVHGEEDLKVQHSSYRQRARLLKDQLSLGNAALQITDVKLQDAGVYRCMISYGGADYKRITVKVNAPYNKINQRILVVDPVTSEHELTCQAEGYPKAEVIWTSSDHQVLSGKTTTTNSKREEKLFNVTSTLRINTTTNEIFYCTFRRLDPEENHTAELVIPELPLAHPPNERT
Assay: PD-1/PD-L1 Homogenous Time-Resolved Fluorescence (HTRF) binding assay
Conditions: PD-L1-His 10 nM, PD-1-Ig 20 nM
Procedure, shortened: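 Compounds preincubated 15 min with PD-L1-His (residues 18-239, 10 nM) in dPBS with 0.1% BSA, 0.05% Tween-20, then PD-1-Ig (residues 25-167, 20 nM) for 15 min. Eu-cryptate anti-Ig (1 nM) and APC anti-His (20 nM) equilibrated 30 min; 665/620 nm ratio read, IC50 derived.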

SMILES | pIC50
CCCC[C@H]1C(=O)N(C)[C@@H](CCCC)C(=O)N[C@@H](CC(C)C)C(=O)N[C@H](C(=O)NCC(N)=O)CSCC(=O)N[C@@H](Cc2ccc(O)cc2)C(=O)N(C)[C@@H](C)C(=O)N[C@@H](CC(N)=O)C(=O)N2CCC[C@H]2C(=O)N[C@@H](CNC[C@H](O)[C@H](O)[C@@H](O)[C@@H](O)CO)C(=O)N[C@@H](CC(C)C)C(=O)N2C[C@H](O)C[C@H]2C(=O)N[C@@H](Cc2c[nH]c3ccccc23)C(=O)N[C@@H](CCN)C(=O)N[C@@H](Cc2cn(CC(=O)O)c3ccccc23)C(=O)N1C [Example 2027] ({CH2CO}-Y[NMeA]NP[X35]L[Hyp]W[Dab][Trp(1-CH2COOH)][NMeNle][NMeNle]LCG-NH2; thioether N-14) | 9.00
CCCC[C@H]1C(=O)N(C)[C@@H](CCCC)C(=O)N[C@@H](CC(C)C)C(=O)N[C@H](C(=O)NCC(N)=O)CSCC(=O)N[C@@H](Cc2ccc(O)cc2)C(=O)N(C)[C@@H](C)C(=O)N[C@@H](CC(N)=O)C(=O)N2CCC[C@H]2C(=O)N[C@@H](CNC2[C@@H](O)[C@@H](O)[C@@H](O)[C@H](O)[C@H]2O)C(=O)N[C@@H](CC(C)C)C(=O)N2C[C@H](O)C[C@H]2C(=O)N[C@@H](Cc2c[nH]c3ccccc23)C(=O)N[C@@H](CCNC2[C@@H](O)[C@@H](O)[C@@H](O)[C@H](O)[C@H]2O)C(=O)N[C@@H](Cc2cn(CC(=O)O)c3ccccc23)C(=O)N1C (stereo partly drawn) [Example 2033] ({CH2CO}-Y[NMeA]NP[X40]L[Hyp]W[X41][Trp(1-CH2COOH)][NMeNle][NMeNle]LCG-NH2; thioether N-14) | 8.06

Other lines, results leading:

pIC50 | SMILES
8.34 | CCCC[C@H]1C(=O)N(C)[C@@H](CCCC)C(=O)N[C@@H](CC(C)C)C(=O)N[C@H](C(=O)NCC(N)=O)CSCC(=O)N[C@@H](Cc2ccc(O)cc2)C(=O)N(C)[C@@H](C)C(=O)N[C@@H](CC(N)=O)C(=O)N2CCC[C@H]2C(=O)N[C@@H](CNC[C@H](O)[C@@H](O)[C@H](O[C@@H]2O[C@H](CO)[C@H](O)[C@H](O)[C@H]2O)[C@H](O)CO)C(=O)N[C@@H](CC(C)C)C(=O)N2C[C@H](O)C[C@H]2C(=O)N[C@@H](Cc2c[nH]c3ccccc23)C(=O)N[C@@H](CCNC[C@H](O)[C@@H](O)[C@H](O[C@@H]2O[C@H](CO)[C@H](O)[C@H](O)[C@H]2O)[C@H](O)CO)C(=O)N[C@@H](Cc2cn(CC(=O)O)c3ccccc23)C(=O)N1C [Example 2028] ({CH2CO}-Y[NMeA]NP[X27]L[Hyp]W[X28][Trp(1-CH2COOH)][NMeNle][NMeNle]LCG-NH2; thioether N-14)
8.07 | CCCC[C@H]1C(=O)N(C)[C@@H](CCCC)C(=O)N[C@@H](CC(C)C)C(=O)N[C@H](C(=O)NCC(N)=O)CSCC(=O)N[C@@H](Cc2ccc(O)cc2)C(=O)N(C)[C@@H](C)C(=O)N[C@@H](CC(N)=O)C(=O)N2CCC[C@H]2C(=O)N[C@@H](CNC[C@@H](O)[C@H](O)[C@@H](O)[C@@H](O)[C@H](O)CO)C(=O)N[C@@H](CC(C)C)C(=O)N2C[C@H](O)C[C@H]2C(=O)N[C@@H](Cc2c[nH]c3ccccc23)C(=O)N[C@@H](CCNC[C@@H](O)[C@H](O)[C@@H](O)[C@@H](O)[C@H](O)CO)C(=O)N[C@@H](Cc2cn(CC(=O)O)c3ccccc23)C(=O)N1C [Example 2029] ({CH2CO}-Y[NMeA]NP[X49]L[Hyp]W[X56][Trp(1-CH2COOH)][NMeNle][NMeNle]LCG-NH2; thioether N-14)
8.04 | CCCC[C@H]1C(=O)N(C)[C@@H](CCCC)C(=O)N[C@@H](CC(C)C)C(=O)N[C@H](C(=O)NCC(N)=O)CSCC(=O)N[C@@H](Cc2ccc(O)cc2)C(=O)N(C)[C@@H](C)C(=O)N[C@@H](CC(N)=O)C(=O)N2CCC[C@H]2C(=O)N[C@@H](CNC[C@@H](O)[C@@H](O)[C@H](O)[C@H](O)C(O)CO)C(=O)N[C@@H](CC(C)C)C(=O)N2C[C@H](O)C[C@H]2C(=O)N[C@@H](Cc2c[nH]c3ccccc23)C(=O)N[C@@H](CCN)C(=O)N[C@@H](Cc2cn(CC(=O)O)c3ccccc23)C(=O)N1C (stereo partly drawn) [Example 2031] ({CH2CO}-Y[NMeA]NP[X50]L[Hyp]W[Dab][Trp(1-CH2COOH)][NMeNle][NMeNle]LCG-NH2; thioether N-14)
8.28 | CCCC[C@H]1C(=O)N(C)[C@@H](CCCC)C(=O)N[C@@H](CC(C)C)C(=O)N[C@H](C(=O)NCC(N)=O)CSCC(=O)N[C@@H](Cc2ccc(O)cc2)C(=O)N(C)[C@@H](C)C(=O)N[C@@H](CC(N)=O)C(=O)N2CCC[C@H]2C(=O)N[C@@H](CNC[C@H](O)[C@@H](O)[C@H](O)[C@H](O)CO)C(=O)N[C@@H](CC(C)C)C(=O)N2C[C@H](O)C[C@H]2C(=O)N[C@@H](Cc2c[nH]c3ccccc23)C(=O)N[C@@H](CCNC[C@H](O)[C@@H](O)[C@H](O)[C@H](O)CO)C(=O)N[C@@H](Cc2cn(CC(=O)O)c3ccccc23)C(=O)N1C [Example 2032] ({CH2CO}-Y[NMeA]NP[X58]L[Hyp]W[X59][Trp(1-CH2COOH)][NMeNle][NMeNle]LCG-NH2; thioether N-14)
